Laboratory results reported in PubChem BioAssay AID489040 (Sanford-Burnham Center for Chemical Genomics, 2010).
Activity calls are given as the source filed them.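 How the source made its calls: active means mean half-maximal activating concentration from the dose-response fit at or below a set limit; inactive means the rest.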

Target: CHO-XBP1 luciferase reporter, IRE1-XBP1 UPR activation
Experiment: activators of IRE1-XBP1 UPR arm, dose response, counter-screen for apoptotic UPR arm activators, CHO-XBP1 cells, luminescence (AID 489040);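 further: reporter read after six hours of compound exposure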

CCn1c(-c2ccccc2)c(C(=O)CCl)c2ccccc21
EC50: > 80 µM (inactive)

CC(C)c1cccc(-c2ccc3c(c2)S(=O)(=O)c2cccc(C(=O)NCc4ccccc4Cl)c2C3=O)c1
EC50: 11.2 µM

CCc1cccc2sc(N3CCN(C(=O)c4ccc([N+](=O)[O-])o4)CC3)nc12
EC50: > 80 µM (inactive)

Cc1ccccc1S(=O)(=O)NC1OC(=O)C(Cl)=C1Cl (stereo not given)
EC50: > 80 µM (inactive)

O=C(Nc1ccc(-c2nc3cc(NC(=O)c4cccs4)ccc3o2)cc1)c1cccs1
EC50: 6.4 µM

COc1ccccc1NC(=O)c1cnc(SCC(=O)NCC2CCCO2)n(C)c1=O (stereo not given)
EC50: > 80 µM (inactive)

CCCn1c(CC)nc([N+](=O)[O-])c1S(=O)(=O)c1ccccc1
EC50: > 80 µM (inactive)

O=C(/C=C/c1cccnc1)c1ccc(NC(=O)c2cccc(Br)c2)cc1
EC50: > 80 µM (inactive)

COc1ccc(N=C2S/C(=C\c3ccc(N4CCOCC4)o3)C(=O)N2CCc2c[nH]c3ccccc23)cc1
EC50: > 80 µM (inactive)

Cc1ccc(C(=O)/C=C/C(=O)c2ccc(C)cc2)cc1
EC50: > 80 µM (inactive)

O=C1Nc2ccccc2/C1=C/C(=O)c1cccs1
EC50: > 80 µM (inactive)

COc1cc(/C=C(/C#N)c2nc3ccccc3[nH]2)ccc1OCC(=O)Nc1ccccc1C
EC50: > 80 µM (inactive)

O=C(Nc1ccc(N2CCOCC2)cc1)c1ccc([N+](=O)[O-])o1
EC50: > 80 µM (inactive)

CCn1c(O)c(C2=c3ccccc3=NC2=O)c2cc(Br)ccc21
EC50: > 80 µM (inactive)

O=CC1=C(c2ccccc2)Oc2ccccc2O1
EC50: > 80 µM (inactive)

CCOC(=O)C(=CNc1nc(-c2ccccc2)c(C(=O)Nc2ccc(-c3ccccc3)cc2)s1)C(=O)OCC
EC50: inactive

S=C1SCN(Cc2ccccn2)CN1Cc1ccco1
EC50: > 80 µM (inactive)

CCCCCOc1ccc(N2C(=O)CC(N(O)c3ccccc3)C2=O)cc1 (stereo not given)
EC50: > 80 µM (inactive)

COc1ccc(NC(=O)c2nc(S(=O)(=O)Cc3cccc(C)c3)ncc2Cl)c(OC)c1
EC50: > 80 µM (inactive)

O=c1[nH]c(=S)n(C2CC2)c(O)c1C=Nc1cccc(C(F)(F)F)c1
EC50: > 80 µM (inactive)
